Data as given in paper PMC6804079, “Investigation of 5’-Norcarbocyclic Nucleoside Analogues as Antiprotozoal and Antibacterial Agents” (Molecules, 2019).
In brackets after ≈: the same amount, converted by molar mass. Several values for one entry are separate records, joined by “and”; a condition that tells them apart may be missing. Equal values may be shown once.

What was measured:
[1] = system: M. tuberculosis MS-115; assay: microbe, parasite or virus in culture; format: cell-based; conditions: Mycobacterium tuberculosis, MS115, read-out: M. Tuberculosis MS-115 MIC
[2] = system: Trypanosoma and Leishmania; design: method as in PMID 28571825; conditions: equivalent activity against both pathogens; cited from earlier work
[3] = system: T. b. brucei strain Lister 427 (s427-WT); assay: resazurin EC50 assay, T. b. brucei wild-type bloodstream forms; format: cell-based, Trypanosoma brucei brucei; conditions: Trypanosoma brucei, 72 h, 48 h + 24 h resazurin, average and SEM, at least three determinations, NE = no effect on cell viability at 100 µM
[4] = system: U-937 cells; assay: U-937 cytotoxicity (XTT); format: cell-based; conditions: 6 days incubation
Description: The U-937 cells used in the cytotoxicity evaluation were obtained from the AIDS Research and Reference Program. The cells were cultured as indicated by the supplier in RPMI-1640 supplemented with 10% heat inactivated FBS, 1% penicillin/streptomycin solution, and 1% L-glutamine.
U-937 cells plated at 2.5 × 10^3 cells/well in a volume of 100 µL were incubated with serially diluted test compounds in a volume of 100 µL for 6 days at 37 °C/5% CO2. Following the incubation, the cells were stained by adding 50 μL tetrazolium dye XTT (Sigma) solution at 5 mg/mL to determine cellular viability and read at 460/650 nm on a spectrophotometer. Toxicity values were calculated using linear regression analysis.

[5] = system: T. brucei B48; assay: microbe, parasite or virus in culture; format: cell-based, Trypanosoma brucei brucei; conditions: Trypanosoma brucei, read-out: T. Brucei, EC50, B48
[6] = system: Tbb-5FURes; assay: microbe, parasite or virus in culture; format: cell-based, Trypanosoma brucei brucei; conditions: Trypanosoma brucei, read-out: T. Brucei, EC50, Tbb-5FURes
[7] = system: L. mexicana 5FURes (Lmex5FURes); assay: microbe, parasite or virus in culture; conditions: Leishmania mexicana, read-out: L. Mexicana 5FUR, EC50
Description: Promastigotes of Leishmania mexicana strain MNY/BZ/62/M379 was cultured in a minimal essential medium, HO-MEMO-MEME, supplemented with 10% FBS and 1% of a penicillin/streptomycin solution (Gibco) as described previously [39] at 25 °C. The L. mexicana 5FURes strain was the same strain but adapted in vitro to high levels of 5FU exactly as described for T. brucei [12].
The resazurin assay for L. mexicana promastigotes was performed exactly as for T. b. brucei, except that incubation times of 72 and 48 h were used before and after the addition of resazurin, respectively, due to the slower metabolism of the dye by Leishmania promastigotes [42].

[8] = system: M. tuberculosis H37Rv; assay: microbe, parasite or virus in culture; format: cell-based; conditions: Mycobacterium tuberculosis, control drugs at critical concentrations
[9] = system: T. brucei 2T1 PYR6-5 −/−; assay: microbe, parasite or virus in culture; format: cell-based, Trypanosoma brucei brucei; conditions: Trypanosoma brucei, read-out: T. Brucei, EC50, 2T1 PYR6-5 −/−
[10] = system: M. tuberculosis ATCC 25,177 (H37Ra); assay: microbe, parasite or virus in culture; format: cell-based, Mycobacterium tuberculosis; conditions: Mycobacterium tuberculosis, read-out: M. Tuberculosis 25,177 MIC

CCCCCCCCCCCCC#Cc1cn([C@H]2C=C[C@@H](O)C2)c(=O)n([C@H]2C=C[C@@H](O)C2)c1=O [Compound 1, 1-[4′-Hydroxy-2′-cyclopenten-1′-yl]-3-(4′′-hydroxy-2′′-cyclopent-en-1′′-yl)-5-tetradecynyluracil]
MIC [1]: > 50 µg/mL | EC50 [2]: 8 to 11.9 µM | EC50 [3]: 8 ± 0.1 µM | U-937 Cells TC50 [4]: 66.3 µM | EC50 [5]: 9 ± 0.1 µM | EC50 [6]: 7.5 ± 0.1 µM | EC50 [7]: 11.4 ± 0.3 µM | MIC [8]: 50 µg/mL (≈ 107 µM) | EC50 [9]: 9.2 ± 0.4 µM | MIC [10]: 250 µM and 117 µg/mL
